Test results: publication PMC8212695, “Discovery of a Highly Conserved Peptide in the Iron Transporter Melanotransferrin that Traverses an Intact Blood Brain Barrier and Localizes in Neural Cells” (Frontiers in Neuroscience, 2021)
Like-named read-outs stand apart in the source and are kept apart here. Where no end group is shown, it is not given here.

Assays:
[1] = system: in vitro BBB model: primary bovine brain capillary endothelial cells supported by primary rat glial cells
[2] = system: in vitro BBB model: primary bovine brain capillary endothelial cells supported by primary rat glial cells; remark: listed apart in the source
[3] = system: in vitro BBB model: primary bovine brain capillary endothelial cells supported by primary rat glial cells; assay: In vitro BBB model transcytosis of trypsin-digested sMTf, peptides identified by mass spectrometry; settings: for Ablum 120:Area: MS peak area in abluminal compartment at 120 min; for Ablum 120:Area / Lum 120:Area: trypsin-digested sMTf 0.25 mg/mL luminal, Ringer-HEPES, 37°C, 2 h, LC-MS, one peptide may have several lines; for Lum 120:Area: MS peak area in luminal compartment at 120 min; for presence of MTf fragments on the abluminal side: after 2 h, SDS-PAGE and/or mass spectrometry
[4] = mouse, in vivo, iv
[5] = system: neurons, astrocytes, microglia, lysosomes, endosomes in the brain; assay: Cellular and subcellular localization of MTfp in mouse brain, 3D confocal microscopy; type: in vivo; settings: mice injected IV with Cy5-MTfp
Experimental: Three sets of 3D fluorescence microscopy experiments were performed. The first set measured the BBB penetration of Cy5 tagged MTfp using DeltaVision Elite integrated with Huygens Deconvolution Software (GE, United States). As an extension of this, a set of sections were prepared to assess the cellular localization of the Cy-5 tagged MTfp in the CNS. The second set of experiments addressed the localization of Cy-5 tagged MTfp in various cell types and subcellular objects using the Leica SP8 X system (Leica, Germany).
The brains were removed and fixed with 4% paraformaldehyde overnight and then transferred into PBS+0.01% sodium azide and stored at 4°C. The brains were embedded in 4% agarose, fixed onto the microtome stage and sectioned (20 μm) at 4°C. The sections were stained with DAPI and then mounted on microscopic slides. Glass coverslips were mounted on the sections using Prolong Gold antifade reagent. In another experiment, to assess the localization of the peptide in the CNS, brains from mice injected with either PBS or Cy5-MTfp followed by FITC- tomato lectin. The brains were collected and processed as stated above. These were then incubated with antibodies targeted against neurons (NeuN; ab177487), microglia (TMEM; ab209064), astrocytes (GFAP; ab7260), lysosomes (LAMP-1; sc-19992-AF546) and endosomes (EEA-1; sc-137130), secondary antibody staining was done for unconjugated primary antibodies with Alexa fluor 680 goat anti-mouse IgG (cat# A21058), Alexa fluor 680 goat anti-rabbit IgG (Cat #A21076) and then counter-stained with DAPI, cover slipped, imaged and quantitatively analyzed to determine the extent of localization of various cell types and subcellular objects with MTfp.
The microscopy experiments, which quantitatively assessed the cellular location of MTfp within the brain, were performed using Leica SP8 X system (Leica, Germany). 3D confocal images were acquired with a Leica AOBS SP8 laser scanning confocal microscope (Leica, Heidelberg, Germany) using a high-resolution Leica 63X/1.4 or 40X/1.3 Plan-Apochromat oil immersion objective lens. Excitations were performed using either diode or tunable white light laser sources. All images and spectral data (except DAPI) were generated using the highly sensitive HyD detectors (with gated option) in de-scanned mode. The backscattered emission signals from the sample were delivered through the tunable filter (AOBS), the detection pinhole, spectral dispersion prism, and finally to the PMT/HyD detectors. For 3D image data set acquisition, the excitation beam was first focused at the maximum signal intensity focal position within the brain tissue sample and the appropriate HyD gain levels were then selected to obtain the pixel intensities within range of 0–255 (8-bit images) using a color gradient function. The beginning and end of the 3D stack were set based on the signal level degradation. Series of 2D images for a selected 3D stack volume were then acquired with 1,024 × 1,024 pixels. […]
For each tissue volume reported here, z-section images were compiled and finally the 3D image restoration was performed using VOLOCITY software (Perkin Elmar, United Kingdom). The volume estimation was performed on the 3D image data sets recorded from four or more cortical area of brain tissue samples. Algorithms were developed to automate the quantification of the test materials and blood capillaries, and to accurately quantify test materials localized in blood capillaries vs. brain parenchyma. […]

[6] = In vivo BBB penetration of Cy5-tagged peptides, 3D deconvolution fluorescence microscopy; settings: mice, IV, Cy5 conjugates
[7] = stable isotopic LC-MS; ref Singh et al., 2020; cited from earlier work
Description: In the context of the present study, the variability in conformation, glycosylation, anchoring and metal binding, presents potential complications to the use of sMTf as a robust, reproducible, clinically useful drug delivery vehicle. Therefore, to improve upon the utility of sMTf as a drug-delivery vector, we fragmented the protein in order to identify the minimally active region that retains the capability of carrying molecular cargo across the BBB. We report the identification of a 12 amino acid peptide (MTfp; […]), derived from melanotransferrin protein, that retains the ability cr ...

Substance	Ablum 120:Area [1]	Lum 120:Area [1]	Abluminal vs. luminal [2]	Abluminal vs. total [2]	Ablum 120:Area [3]	Lum 120:Area [3]	presence of MTf fragments on the abluminal side [3]	further results
IQAEQVDAVTLSGEDIYTAGK	0.00E+00	3.48E+06	–	–	–	–	–	–
ADVTEWR [ADVTEWR]	–	–	1.32%	0.82%	1.05E+10	9.31E+08	identified in the abluminal medium	–
LCRGDSSGEGVCDK	2.64E+05	2.17E+05	–	–	–	–	–	–
DSSHAFTLDELRGK	1.99E+07	0.00E+00	–	–	–	–	–	–
ADTDGGLIFRLLNEGQR	0.00E+00	3.69E+07	–	–	–	–	–	–
EHGLKPVVGEVYDQEVGTSYYAVAVVRR	1.70E+07	0.00E+00	–	–	–	–	–	–
AVSDYFGGSCVPGAGETSYSESLCR	5.49E+08	5.51E+09	–	–	–	–	–	–
YYDYSGAFR	–	–	0.13%	0.05%	6.41E+09	1.00E+09	identified in the abluminal medium	–
DSSHAFTLDELRYC [MTfp-Cy5]	–	–	–	–	–	–	–	VT ABVP (Volume of Parenchymal Test Article normalized to Parenchymal Volume), Mean [4]: 1.0 8E-03; fractional fluorescence in the brain parenchyma compared to mice injected with PBS or revMTfp-Cy5 [4]: Approximately two
ADTDGGLIFR	–	–	2.16%	1.60%	1.59E+10	1.11E+10	identified in the abluminal medium	–
NYPSSLCALCVGDEQGR	7.34E+07	6.15E+08	–	–	–	–	–	–
VPAHAVVVR	–	–	2.49%	1.52%	1.24E+08	3.48E+07	identified in the abluminal medium	–
RLEDLTFAHSSDYC [revMTfp-Cy5, reference compound]	–	–	–	–	–	–	–	VT ABVP (Volume of Parenchymal Test Article normalized to Parenchymal Volume), Mean [4]: 6.6 7E-04
TVGWNVPVGYLVESGR	0.00E+00	9.38E+07	–	–	–	–	–	–
GDSSGEGVCDKSPLER	1.93E+09	5.08E+08	–	–	–	–	–	–
DSSHAFTLDELR [MTfp]	–	–	2.41%	1.90%	5.87E+09	1.03E+10	identified in the abluminal medium	MTfp found in the early endosomes ([5]; EEA-1 marker): approximately 20%; MTfp found in the lysosomes ([5]; LAMP-1 marker): 40%; astrocytes expressing GFAP co-labeled with MTfp ([5]; fluorescence volume fraction): 70%; microglia expressing TMEM co-labeled with MTfp ([5]; fluorescence volume fraction): 80%; neurons expressing NeuN co-labeled with MTfp ([5]; fluorescence volume fraction): 90%; BBB penetration efficiency compared with RVGp [6]: statistically similar; initial rate of entry into the brain [7]: 2.1 nM/min
